Test results taken from patent publication US9226912B2, “Acetyltanshinone IIA (ATA) as anticancer agent” (Nanyang Technological University, priority 2011, dated 2016).

Biological target: T1, ERα in MCF-7 cells (Homo sapiens, UniProt P03372)
T1 construct: endogenous in cells; host or cells: MCF-7 human breast cancer cells
T1 sequence (P03372 1-595): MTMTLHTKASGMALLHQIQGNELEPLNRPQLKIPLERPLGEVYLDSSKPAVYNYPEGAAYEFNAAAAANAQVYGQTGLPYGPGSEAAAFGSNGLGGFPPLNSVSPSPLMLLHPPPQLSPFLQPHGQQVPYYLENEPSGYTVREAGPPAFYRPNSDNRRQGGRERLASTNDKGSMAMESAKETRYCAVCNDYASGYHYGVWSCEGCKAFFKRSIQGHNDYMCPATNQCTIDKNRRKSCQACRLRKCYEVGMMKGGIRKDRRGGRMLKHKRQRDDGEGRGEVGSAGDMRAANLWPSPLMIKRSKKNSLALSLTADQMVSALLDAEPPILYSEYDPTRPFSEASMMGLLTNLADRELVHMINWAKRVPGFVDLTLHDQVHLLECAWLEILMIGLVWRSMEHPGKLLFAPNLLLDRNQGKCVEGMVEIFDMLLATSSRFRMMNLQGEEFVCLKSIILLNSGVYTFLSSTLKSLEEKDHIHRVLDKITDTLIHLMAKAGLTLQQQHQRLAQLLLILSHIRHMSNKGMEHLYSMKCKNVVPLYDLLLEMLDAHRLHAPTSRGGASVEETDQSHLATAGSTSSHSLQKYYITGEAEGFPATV
Test: ERα protein level by immunostaining and Western blot
Format: cell-based
Procedure: (B) Western blot analysis of ERα levels in normal medium-cultured MCF-7 cells at different times with 6 μM ATA treatment.
Thus, immunostaining was used to exam the protein level of ERα in MCF-7 cells after ATA treatment. It was observed that ERα was mainly localized in the nucleus (FIG. 6A) in the control cells, which had been cultured in the charcoal-stripped medium for 4 days.
Subsequently, Western blot analysis was used to confirm this prediction. […] To ensure that ATA produced a similar effect in the MCF-7 cells under a physiological condition, Western blotting was used to determine the protein level of ERα in normal medium-cultured MCF-7 cells with or without ATA treatment.

[1] = 6 μM ATA, 3 h, charcoal-stripped medium, immunostaining

SMILES: CC(=O)Oc1c(OC(C)=O)c2c(C)coc2c2ccc3c(c12)CCCC3(C)C [ATA, 1,6,6-trimethyl-8,9-dihydro-10,11-diacetoxyl-7H-naphtho[1,2-g][1]benzofuran]
- ERα protein level (6 μM ATA, 24 and 48 h, normal medium, Western blot): significantly decreased
- ERα fluorescence intensity in the cytosol [1]: remained unchanged
- level of ERα in the nucleus [1]: greatly reduced
- total protein level of ERα (4 h, charcoal-stripped medium, Western blot): slightly reduced
- total protein level of ERα (after 8 h, charcoal-stripped medium, Western blot): significantly reduced
